Source: article PMC10611619, “[^99mTc]Tc-PentixaTec: development, extensive pre-clinical evaluation, and first human experience” (European Journal of Nuclear Medicine and Molecular Imaging, 2023)
Where a SMILES comes first, the peptide text is derived from it. Side-chain parts run from the residue outwards. [ ]: non-standard residue; d: D form. The star is where a group is joined. 2Nal = N[C@@H](Cc1ccc2ccccc2c1)C(=O)O; dNMeOrn = CN[C@H](CCCN)C(=O)O; 4Abz = Nc1ccc(C(=O)O)cc1; X1 = NCCNCC(CNCCN)C(=O)*; dDap = NC[C@@H](N)C(=O)O

Assay: Patient radiation dosimetry (OLINDA/EXM, RADAR/MIRD)
Assay type: in vivo, human
Conditions: for Absorbed organ dose Adrenals / Absorbed organ dose Brain / Absorbed organ dose Breast / Absorbed organ dose Gallbladder wall / Absorbed organ dose Heart wall / Absorbed organ dose Kidneys / Absorbed organ dose LLI wall / Absorbed organ dose Liver / Absorbed organ dose Lungs / Absorbed organ dose Muscle / Absorbed organ dose Osteogenic cells / Absorbed organ dose Ovaries / Absorbed organ dose Pancreas / Absorbed organ dose Red marrow / Absorbed organ dose Skin / Absorbed organ dose Small intestine / Absorbed organ dose Spleen / Absorbed organ dose Stomach wall / Absorbed organ dose Testes / Absorbed organ dose Thymus / Absorbed organ dose Thyroid / Absorbed organ dose Total body / Absorbed organ dose ULI wall / Absorbed organ dose Urinary bladder wall / Absorbed organ dose Uterus: per 1 MBq
Experimental: Radiation dosimetry calculations were performed using the RADAR (Radiation Dose Assessment Resource) method as implemented in the OLINDA/EXM software and according to the recommendations of the Medical Internal Radiation Dose (MIRD) committee. The individual absorbed organ doses (ODs) and the effective doses (EDs) were corrected to consider the current tissue weighting factors of ICRP 103 [38]. For a detailed description of image analysis for dosimetry, please refer to the supplementary materials section.
The Xeleris^TM Dosimetry Toolkit (GE Healthcare, Milwaukee, USA) was used to perform full organ segmentation by an experienced user. This was performed manually on CT images of organs (kidneys, liver, spleen, heart, lungs, lumbar vertebrae 2-4) to define the regions and volumes of interest (VOIs) for gamma camera scans and SPECT analysis. Quantification of the activity in the VOIs was carried out as converting counts in the VOIs by a calibration factor to the average activity per milliliter and per organ.
The VOIs were transferred from SPECT/CT to the planar images. Additional ROIs for the whole body and a background region adjacent to the head were drawn on the planar images.
The VOIs were used to determine the masses of the individual organs. For the lungs, a density of 0.288 g/mL was used. For all organs not covered by any VOI, the uptake was summed as the contribution from the remainder of the body in the dose calculation.
The time-integrated activity coefficients of all contoured organs were determined using the hybrid planar/SPECT method. Thus, the shape of the time-activity curves were estimated based on the planar images using the NUKFIT software and then scaled to activity values using the SPECT/CT. The accumulated activity in the bone marrow was calculated using the activity in the lumbar vertebrae 2-4 with the assumption that these contain 6.7% of the red bone marrow.
Radiation dosimetry calculations were performed using the RADAR (Radiation Dose Assessment Resource) method as implemented in the OLINDA/EXM software and according to the recommendations of the Medical Internal Radiation Dose (MIRD) committee. The OLINDA/EXM application (version 1.0) was used to calculate the individual absorbed organ doses (ODs) and the effective doses (EDs) by using the time-integrated activity coefficients and the individual patients’ organ masses. A mass of 1500 g for the red bone marrow as assumed for all patients. The EDs were afterwards corrected to consider the current tissue weighting factors of ICRP 103 [16]. The absorbed OD and ED were evaluated for each patient and then averaged across all the patients.

## C[C@@H](NC(=O)[C@@H](CCCNC(=N)N)NC(=O)[C@@H](CN)NC(=O)C(CNCCN)CNCCN)C(=O)Nc1ccc(C(=O)NCCC[C@@H]2C(=O)N[C@@H](CCCNC(=N)N)C(=O)N[C@@H](Cc3ccc4ccccc4c3)C(=O)NCC(=O)N[C@H](Cc3ccc(O)cc3)C(=O)N2C)cc1 [[^99mTc]Tc-N4-L6-CPCR4, [^99mTc]Tc-N4-dap-r-a-Abz-CPCR4, metal not drawn] (cyclo([dY][dNMeOrn]([4Abz-dA-dR-dDap-X1])R[2Nal]G))
Four patients
  absorbed dose bone marrow, median: 9.40E − 03 mGy/MBq
  absorbed dose bone marrow, range: 6.2E − 03–13.50E − 03 mGy/MBq
  absorbed dose kidneys, median: 1.23E − 02 mGy/MBq
  absorbed dose kidneys, range: 0.94 E − 02–1.37E − 02 mGy/MBq
  absorbed dose spleen, median: 1.95E − 02 mGy/MBq
  absorbed dose spleen, range: 1.61E − 02–2.38E − 02 mGy/MBq
  effective dose per unit of administered activity, median: 5.3E − 03 mSv/MBq
  effective dose per unit of administered activity, range: 4.3E − 03–6.7E − 03 mSv/MBq
Median
  Absorbed organ dose Adrenals: 0.0065 mGy
  Absorbed organ dose Brain: 0.0030 mGy
  Absorbed organ dose Breast: 0.0025 mGy
  Absorbed organ dose Gallbladder wall: 0.0060 mGy
  Absorbed organ dose Heart wall: 0.0044 mGy
  Absorbed organ dose Kidneys: 0.0123 mGy
  Absorbed organ dose LLI wall: 0.0048 mGy
  Absorbed organ dose Liver: 0.0077 mGy
  Absorbed organ dose Lungs: 0.0063 mGy
  Absorbed organ dose Muscle: 0.0035 mGy
  Absorbed organ dose Osteogenic cells: 0.0136 mGy
  Absorbed organ dose Ovaries: 0.0050 mGy
  Absorbed organ dose Pancreas: 0.0070 mGy
  Absorbed organ dose Red marrow: 0.0094 mGy
  Absorbed organ dose Skin: 0.0023 mGy
  Absorbed organ dose Small intestine: 0.0049 mGy
  Absorbed organ dose Spleen: 0.0195 mGy
  Absorbed organ dose Stomach wall: 0.0051 mGy
  Absorbed organ dose Testes: 0.0026 mGy
  Absorbed organ dose Thymus: 0.0036 mGy
  Absorbed organ dose Thyroid: 0.0033 mGy
  Absorbed organ dose Total body: 0.0037 mGy
  Absorbed organ dose ULI wall: 0.0049 mGy
  Absorbed organ dose Urinary bladder wall: 0.0041 mGy
  Absorbed organ dose Uterus: 0.0047 mGy
Patient 1
  Absorbed organ dose Adrenals: 0.0053 mGy
  Absorbed organ dose Brain: 0.0023 mGy
  Absorbed organ dose Breast: 0.0021 mGy
  Absorbed organ dose Gallbladder wall: 0.0051 mGy
  Absorbed organ dose Heart wall: 0.0040 mGy
  Absorbed organ dose Kidneys: 0.0137 mGy
  Absorbed organ dose LLI wall: 0.0037 mGy
  Absorbed organ dose Liver: 0.0066 mGy
  Absorbed organ dose Lungs: 0.0051 mGy
  Absorbed organ dose Muscle: 0.0028 mGy
  Absorbed organ dose Osteogenic cells: 0.0099 mGy
  Absorbed organ dose Ovaries: 0.0040 mGy
  Absorbed organ dose Pancreas: 0.0055 mGy
  Absorbed organ dose Red marrow: 0.0065 mGy
  Absorbed organ dose Skin: 0.0018 mGy
  Absorbed organ dose Small intestine: 0.0041 mGy
  Absorbed organ dose Spleen: 0.0161 mGy
  Absorbed organ dose Stomach wall: 0.0040 mGy
  Absorbed organ dose Testes: 0.0023 mGy
  Absorbed organ dose Thymus: 0.0030 mGy
  Absorbed organ dose Thyroid: 0.0028 mGy
  Absorbed organ dose Total body: 0.0028 mGy
  Absorbed organ dose ULI wall: 0.0040 mGy
  Absorbed organ dose Urinary bladder wall: 0.0033 mGy
  Absorbed organ dose Uterus: 0.0038 mGy
Patient 2
  Absorbed organ dose Adrenals: 0.0078 mGy
  Absorbed organ dose Brain: 0.0032 mGy
  Absorbed organ dose Breast: 0.0028 mGy
  Absorbed organ dose Gallbladder wall: 0.0068 mGy
  Absorbed organ dose Heart wall: 0.0049 mGy
  Absorbed organ dose Kidneys: 0.0117 mGy
  Absorbed organ dose LLI wall: 0.0053 mGy
  Absorbed organ dose Liver: 0.0087 mGy
  Absorbed organ dose Lungs: 0.0079 mGy
  Absorbed organ dose Muscle: 0.0038 mGy
  Absorbed organ dose Osteogenic cells: 0.0162 mGy
  Absorbed organ dose Ovaries: 0.0054 mGy
  Absorbed organ dose Pancreas: 0.0083 mGy
  Absorbed organ dose Red marrow: 0.0135 mGy
  Absorbed organ dose Skin: 0.0024 mGy
  Absorbed organ dose Small intestine: 0.0053 mGy
  Absorbed organ dose Spleen: 0.0238 mGy
  Absorbed organ dose Stomach wall: 0.0057 mGy
  Absorbed organ dose Thymus: 0.0040 mGy
  Absorbed organ dose Thyroid: 0.0032 mGy
  Absorbed organ dose Total body: 0.0039 mGy
  Absorbed organ dose ULI wall: 0.0055 mGy
  Absorbed organ dose Urinary bladder wall: 0.0043 mGy
  Absorbed organ dose Uterus: 0.0049 mGy
Patient 3
  Absorbed organ dose Adrenals: 0.0083 mGy
  Absorbed organ dose Brain: 0.0039 mGy
  Absorbed organ dose Breast: 0.0032 mGy
  Absorbed organ dose Gallbladder wall: 0.0073 mGy
  Absorbed organ dose Heart wall: 0.0054 mGy
  Absorbed organ dose Kidneys: 0.0128 mGy
  Absorbed organ dose LLI wall: 0.0062 mGy
  Absorbed organ dose Liver: 0.0089 mGy
  Absorbed organ dose Lungs: 0.0075 mGy
